Assay: shake flask on a mixture of 185; loss from the water phase only; LC-Orbitrap peak areas
Conditions: room

CCCCC(O)(Cn1cncn1)c1ccc(Cl)cc1Cl (stereo not shown)
log partition 1-octanol / HPLC water, unbuffered, traces of methanol / DMSO: 3.35 log10 | log partition butyl acetate / HPLC water, unbuffered, traces of methanol / DMSO: 5.299 log10 | log partition chloroform / HPLC water, unbuffered, traces of methanol / DMSO: 1.307 log10 | log partition cyclohexane / HPLC water, unbuffered, traces of methanol / DMSO: 3.351 log10 | log partition dichloromethane / HPLC water, unbuffered, traces of methanol / DMSO: 4.823 log10 | log partition n-hexane / HPLC water, unbuffered, traces of methanol / DMSO: 2.027 log10 | log partition n-octane / HPLC water, unbuffered, traces of methanol / DMSO: 2.104 log10 | log partition n-undecane / HPLC water, unbuffered, traces of methanol / DMSO: 2.029 log10 | log partition oleylalcohol / HPLC water, unbuffered, traces of methanol / DMSO: 3.139 log10 | log partition toluene / HPLC water, unbuffered, traces of methanol / DMSO: 4.525 log10

CCCCNS(=O)(=O)c1ccccc1
log partition 1-octanol / HPLC water, unbuffered, traces of methanol / DMSO: 0.09093 log10 | log partition butyl acetate / HPLC water, unbuffered, traces of methanol / DMSO: -0.4267 log10 | log partition chloroform / HPLC water, unbuffered, traces of methanol / DMSO: 0.044 log10 | log partition cyclohexane / HPLC water, unbuffered, traces of methanol / DMSO: -0.2649 log10 | log partition dichloromethane / HPLC water, unbuffered, traces of methanol / DMSO: -0.02662 log10 | log partition n-hexane / HPLC water, unbuffered, traces of methanol / DMSO: -0.2215 log10 | log partition n-octane / HPLC water, unbuffered, traces of methanol / DMSO: -0.4356 log10 | log partition n-undecane / HPLC water, unbuffered, traces of methanol / DMSO: -0.4781 log10 | log partition oleylalcohol / HPLC water, unbuffered, traces of methanol / DMSO: 0.1238 log10 | log partition toluene / HPLC water, unbuffered, traces of methanol / DMSO: -0.1107 log10

O=C(O)c1ccccc1C(c1ccc(O)cc1)c1ccc(O)cc1
log partition 1-octanol / HPLC water, unbuffered, traces of methanol / DMSO: -0.6855 log10 | log partition butyl acetate / HPLC water, unbuffered, traces of methanol / DMSO: 0.116 log10 | log partition chloroform / HPLC water, unbuffered, traces of methanol / DMSO: -0.6877 log10 | log partition cyclohexane / HPLC water, unbuffered, traces of methanol / DMSO: -1.286 log10 | log partition dichloromethane / HPLC water, unbuffered, traces of methanol / DMSO: -0.3134 log10 | log partition n-hexane / HPLC water, unbuffered, traces of methanol / DMSO: -0.9598 log10 | log partition n-octane / HPLC water, unbuffered, traces of methanol / DMSO: -1.232 log10 | log partition n-undecane / HPLC water, unbuffered, traces of methanol / DMSO: -1.337 log10 | log partition oleylalcohol / HPLC water, unbuffered, traces of methanol / DMSO: -0.1989 log10 | log partition toluene / HPLC water, unbuffered, traces of methanol / DMSO: -0.7201 log10

OC(c1ccc(F)cc1)(c1cncnc1)c1ccccc1Cl (stereo not shown)
log partition 1-octanol / HPLC water, unbuffered, traces of methanol / DMSO: 2.087 log10 | log partition butyl acetate / HPLC water, unbuffered, traces of methanol / DMSO: 2.226 log10 | log partition chloroform / HPLC water, unbuffered, traces of methanol / DMSO: 2.317 log10 | log partition cyclohexane / HPLC water, unbuffered, traces of methanol / DMSO: 2.077 log10 | log partition dichloromethane / HPLC water, unbuffered, traces of methanol / DMSO: 2.933 log10 | log partition n-hexane / HPLC water, unbuffered, traces of methanol / DMSO: 1.642 log10 | log partition n-octane / HPLC water, unbuffered, traces of methanol / DMSO: 1.699 log10 | log partition n-undecane / HPLC water, unbuffered, traces of methanol / DMSO: 1.456 log10 | log partition oleylalcohol / HPLC water, unbuffered, traces of methanol / DMSO: 1.561 log10 | log partition toluene / HPLC water, unbuffered, traces of methanol / DMSO: 2.565 log10

CC(=O)Nc1ccc(C)cc1C
log partition 1-octanol / HPLC water, unbuffered, traces of methanol / DMSO: 0.5136 log10 | log partition butyl acetate / HPLC water, unbuffered, traces of methanol / DMSO: 0.7692 log10 | log partition chloroform / HPLC water, unbuffered, traces of methanol / DMSO: 0.52 log10 | log partition dichloromethane / HPLC water, unbuffered, traces of methanol / DMSO: 0.8573 log10 | log partition oleylalcohol / HPLC water, unbuffered, traces of methanol / DMSO: 0.7926 log10 | log partition toluene / HPLC water, unbuffered, traces of methanol / DMSO: 0.01564 log10

CCOc1ccc2c(c1)C(C)CC(C)(C)N2 (stereo not shown)
log partition 1-octanol / HPLC water, unbuffered, traces of methanol / DMSO: 1.166 log10 | log partition butyl acetate / HPLC water, unbuffered, traces of methanol / DMSO: 0.4802 log10 | log partition chloroform / HPLC water, unbuffered, traces of methanol / DMSO: 0.1266 log10 | log partition cyclohexane / HPLC water, unbuffered, traces of methanol / DMSO: 0.1355 log10 | log partition dichloromethane / HPLC water, unbuffered, traces of methanol / DMSO: 0.03099 log10 | log partition n-hexane / HPLC water, unbuffered, traces of methanol / DMSO: 0.4617 log10 | log partition n-octane / HPLC water, unbuffered, traces of methanol / DMSO: 0.03342 log10 | log partition n-undecane / HPLC water, unbuffered, traces of methanol / DMSO: 0.09286 log10 | log partition oleylalcohol / HPLC water, unbuffered, traces of methanol / DMSO: 0.8298 log10 | log partition toluene / HPLC water, unbuffered, traces of methanol / DMSO: -0.1412 log10

CCCCCCC(O)CCCCCCCCCCC(=O)OC (stereo not shown)
log partition 1-octanol / HPLC water, unbuffered, traces of methanol / DMSO: -0.3995 log10 | log partition butyl acetate / HPLC water, unbuffered, traces of methanol / DMSO: -0.5958 log10 | log partition chloroform / HPLC water, unbuffered, traces of methanol / DMSO: -0.2735 log10 | log partition cyclohexane / HPLC water, unbuffered, traces of methanol / DMSO: -0.4754 log10 | log partition dichloromethane / HPLC water, unbuffered, traces of methanol / DMSO: -1.47 log10 | log partition n-hexane / HPLC water, unbuffered, traces of methanol / DMSO: -1.341 log10 | log partition n-octane / HPLC water, unbuffered, traces of methanol / DMSO: -1.53 log10 | log partition n-undecane / HPLC water, unbuffered, traces of methanol / DMSO: -1.718 log10 | log partition oleylalcohol / HPLC water, unbuffered, traces of methanol / DMSO: -0.7143 log10 | log partition toluene / HPLC water, unbuffered, traces of methanol / DMSO: -1.19 log10

O=C(OC1CCCCC1)c1ccccc1C(=O)OC1CCCCC1
log partition 1-octanol / HPLC water, unbuffered, traces of methanol / DMSO: 0.6596 log10 | log partition butyl acetate / HPLC water, unbuffered, traces of methanol / DMSO: 0.2225 log10 | log partition chloroform / HPLC water, unbuffered, traces of methanol / DMSO: 0.1245 log10 | log partition cyclohexane / HPLC water, unbuffered, traces of methanol / DMSO: -0.9365 log10 | log partition dichloromethane / HPLC water, unbuffered, traces of methanol / DMSO: 0.1411 log10 | log partition n-hexane / HPLC water, unbuffered, traces of methanol / DMSO: -0.6432 log10 | log partition n-octane / HPLC water, unbuffered, traces of methanol / DMSO: -1.045 log10 | log partition n-undecane / HPLC water, unbuffered, traces of methanol / DMSO: -0.8058 log10 | log partition oleylalcohol / HPLC water, unbuffered, traces of methanol / DMSO: -0.79 log10 | log partition toluene / HPLC water, unbuffered, traces of methanol / DMSO: -1.067 log10

N#CC(c1ccccc1)c1ccccc1
log partition 1-octanol / HPLC water, unbuffered, traces of methanol / DMSO: -0.3597 log10 | log partition butyl acetate / HPLC water, unbuffered, traces of methanol / DMSO: 0.2978 log10 | log partition chloroform / HPLC water, unbuffered, traces of methanol / DMSO: -0.002518 log10 | log partition cyclohexane / HPLC water, unbuffered, traces of methanol / DMSO: -0.2823 log10 | log partition dichloromethane / HPLC water, unbuffered, traces of methanol / DMSO: 0.1658 log10 | log partition n-hexane / HPLC water, unbuffered, traces of methanol / DMSO: -0.257 log10 | log partition n-octane / HPLC water, unbuffered, traces of methanol / DMSO: -0.2917 log10 | log partition n-undecane / HPLC water, unbuffered, traces of methanol / DMSO: -0.816 log10 | log partition oleylalcohol / HPLC water, unbuffered, traces of methanol / DMSO: 0.1292 log10 | log partition toluene / HPLC water, unbuffered, traces of methanol / DMSO: 0.1711 log10

c1ccc(CCCc2ccncc2)cc1
log partition 1-octanol / HPLC water, unbuffered, traces of methanol / DMSO: 0.08604 log10 | log partition butyl acetate / HPLC water, unbuffered, traces of methanol / DMSO: -0.4137 log10 | log partition chloroform / HPLC water, unbuffered, traces of methanol / DMSO: -0.0585 log10 | log partition cyclohexane / HPLC water, unbuffered, traces of methanol / DMSO: -0.2421 log10 | log partition dichloromethane / HPLC water, unbuffered, traces of methanol / DMSO: 0.1807 log10 | log partition n-hexane / HPLC water, unbuffered, traces of methanol / DMSO: -0.1192 log10 | log partition n-octane / HPLC water, unbuffered, traces of methanol / DMSO: -0.1298 log10 | log partition n-undecane / HPLC water, unbuffered, traces of methanol / DMSO: -0.4578 log10 | log partition oleylalcohol / HPLC water, unbuffered, traces of methanol / DMSO: -0.2233 log10 | log partition toluene / HPLC water, unbuffered, traces of methanol / DMSO: -0.2508 log10

CC(=O)c1ccc2ccccc2c1
log partition 1-octanol / HPLC water, unbuffered, traces of methanol / DMSO: 0.3821 log10 | log partition butyl acetate / HPLC water, unbuffered, traces of methanol / DMSO: -0.9282 log10 | log partition chloroform / HPLC water, unbuffered, traces of methanol / DMSO: -0.4983 log10 | log partition cyclohexane / HPLC water, unbuffered, traces of methanol / DMSO: -0.222 log10 | log partition dichloromethane / HPLC water, unbuffered, traces of methanol / DMSO: -0.6955 log10 | log partition n-hexane / HPLC water, unbuffered, traces of methanol / DMSO: 0.5227 log10 | log partition n-octane / HPLC water, unbuffered, traces of methanol / DMSO: 0.6442 log10 | log partition n-undecane / HPLC water, unbuffered, traces of methanol / DMSO: 0.226 log10 | log partition oleylalcohol / HPLC water, unbuffered, traces of methanol / DMSO: -0.06645 log10 | log partition toluene / HPLC water, unbuffered, traces of methanol / DMSO: -0.371 log10

CCCC1COC(Cn2cncn2)(c2ccc(Cl)cc2Cl)O1 (stereo not shown)
log partition 1-octanol / HPLC water, unbuffered, traces of methanol / DMSO: 0.3483 log10 | log partition butyl acetate / HPLC water, unbuffered, traces of methanol / DMSO: 0.1767 log10 | log partition chloroform / HPLC water, unbuffered, traces of methanol / DMSO: 0.2115 log10 | log partition cyclohexane / HPLC water, unbuffered, traces of methanol / DMSO: 0.2977 log10 | log partition dichloromethane / HPLC water, unbuffered, traces of methanol / DMSO: 0.2897 log10 | log partition n-hexane / HPLC water, unbuffered, traces of methanol / DMSO: 0.2474 log10 | log partition n-octane / HPLC water, unbuffered, traces of methanol / DMSO: 0.3088 log10 | log partition n-undecane / HPLC water, unbuffered, traces of methanol / DMSO: 0.1588 log10 | log partition oleylalcohol / HPLC water, unbuffered, traces of methanol / DMSO: 0.003105 log10 | log partition toluene / HPLC water, unbuffered, traces of methanol / DMSO: 0.07569 log10

CCCCCCOc1cc(C)c(O)c(C)c1C
log partition 1-octanol / HPLC water, unbuffered, traces of methanol / DMSO: -0.6155 log10 | log partition butyl acetate / HPLC water, unbuffered, traces of methanol / DMSO: -0.05403 log10 | log partition chloroform / HPLC water, unbuffered, traces of methanol / DMSO: 0.3185 log10 | log partition cyclohexane / HPLC water, unbuffered, traces of methanol / DMSO: -0.4525 log10 | log partition dichloromethane / HPLC water, unbuffered, traces of methanol / DMSO: -0.07725 log10 | log partition n-hexane / HPLC water, unbuffered, traces of methanol / DMSO: -0.4691 log10 | log partition n-octane / HPLC water, unbuffered, traces of methanol / DMSO: -0.1513 log10 | log partition n-undecane / HPLC water, unbuffered, traces of methanol / DMSO: -0.6506 log10 | log partition oleylalcohol / HPLC water, unbuffered, traces of methanol / DMSO: 0.4249 log10 | log partition toluene / HPLC water, unbuffered, traces of methanol / DMSO: -0.2013 log10

CC(C)(C#N)Nc1nc(Cl)nc(NC2CC2)n1
log partition 1-octanol / HPLC water, unbuffered, traces of methanol / DMSO: 2.353 log10 | log partition butyl acetate / HPLC water, unbuffered, traces of methanol / DMSO: 1.721 log10 | log partition chloroform / HPLC water, unbuffered, traces of methanol / DMSO: 2.761 log10 | log partition cyclohexane / HPLC water, unbuffered, traces of methanol / DMSO: -0.1053 log10 | log partition dichloromethane / HPLC water, unbuffered, traces of methanol / DMSO: 2.268 log10 | log partition n-hexane / HPLC water, unbuffered, traces of methanol / DMSO: -0.13 log10 | log partition n-octane / HPLC water, unbuffered, traces of methanol / DMSO: 0.2329 log10 | log partition n-undecane / HPLC water, unbuffered, traces of methanol / DMSO: -0.4376 log10 | log partition oleylalcohol / HPLC water, unbuffered, traces of methanol / DMSO: 1.837 log10 | log partition toluene / HPLC water, unbuffered, traces of methanol / DMSO: 1.234 log10

CN1C(=O)CCS(=O)(=O)C1c1ccc(Cl)cc1 (stereo not shown)
log partition chloroform / HPLC water, unbuffered, traces of methanol / DMSO: 3.591 log10 | log partition dichloromethane / HPLC water, unbuffered, traces of methanol / DMSO: 5.525 log10 | log partition toluene / HPLC water, unbuffered, traces of methanol / DMSO: 4.586 log10

— publication PMC10569036
